SMILES strings stand for the structures.

Holding throughout (assay type): cell-based
Test [1] has as its system SNU-C5. Briefly: 72 hr cell titer Glo proliferation assay, BRAFV600E mutant CRC cell lines. The settings on record: SNU-C5 (PI3Kα mutation), single agent. The protocol: Single agent and combinatorial effects on proliferation of inhibitors of RAF (Compound of Formula (I)) and PIK3Ca (Compound X) kinases in seven BRAF-mutant CRC-derived cell lines. All cell lines express the BRAFV600E protein. Cells harboring known or putative activating mutations in the PI3Kα gene are marked with a (*) and cells with PTEN loss marked with a (#). Cell proliferation was measured in 72 hr cell titer Glo™ assays and all results supplied are the result of at least triplicate measurements. Shown are single agent IC50 values for the Compound of Formula (I) and Compound X. Synergy score (SS) measurements as well as the combination index (C150) at the 50% effect level are given for each combination) in Table 6. Interactions were deemed synergistic when SS values were ≥2.0 and CI values were ≤0.5. Interactions were deemed additive/synergistic when either SS values were ≥2.0 but CI values were >0.5 or SS values were <2.0 but CI values were ≤0.5. Interactions where termed additive when SS values were <2.0 and CI values were >0.5. Synergy calls are given in the “effect description” columns.
In general terms: In ATP-based viability assays light output follows the ATP content of the culture.

The test system of test [2] is five CRC-derived T1799 mutant BRAF cell lines. Briefly: CellTiter-Glo proliferation assay, panel summary. The settings on record: absence of FGF2, read-out: IC50 values, range over cell lines. The protocol:
(§1) All cell lines were purchased from ATTC (SK-MEL-5, SK-MEL-24, UACC-62, COLO 741, COLO-800, WM-266-4, Colo205, LS411N, SW 1417), ECACC (MDST8), DSMZ (CL-34) and NCI (LOX IMVI). […] Cell lines were cultured in 37° C. and 5% CO2 incubator and expanded in T-75 flasks. In all cases cells were thawed from frozen stocks, expanded through passage using 1:3 dilutions, counted and assessed for viability using a ViCell counter (Beckman-Coulter), prior to plating in 96-well or 6-well plates. To split and expand cell lines, cells were dislodged from flasks using 0.25% Trypsin-EDTA (GIBCO, Catalog number 25200). All cell lines were determined to be free of mycoplasma contamination as determined by a PCR detection methodology performed at Idexx Radii (Columbia, Mo., USA) and correctly identified by detection of a panel of SNPs. […]
(§2) For CellTiter-Glo™ assays, cells were dispensed into tissue culture treated 96-well plates (Costar, catalog number 3904) with a final volume of 80 μL of medium and at density of 3000 cells per well. […] Plates were incubated for 72 hrs and the effects of compounds on cell proliferation was determined using the CellTiter-Glo™ Luminescent Cell Viability Assay (CTG, Promega) and a Victor™ X4 plate reader (Perkin Elmer). […] Cells were continuously monitored every two hours for seven days with the xCELLigence real-time impedance based cell analyzer. […]

Test [3] concerns six melanoma T1799 mutant BRAF cell lines. Briefly: CellTiter-Glo proliferation assay, panel summary. The settings on record: absence of FGF2, read-out: IC50 values, range over cell lines. The protocol:
as §1, §2

In the case of `COC(=O)N[C@@H](C)CNc1nccc(-c2cn(C(C)C)nc2-c2cc(Cl)cc(NS(C)(=O)=O)c2F)n1` [Compound of Formula (I)], the IC50 in test [1] is more than 2700 nM; in test [2] it was 4 to 185 nM; in test [3], 3 to 470 nM.

One may read the IC50 as the point on the concentration scale where inhibition reaches its midpoint.

Values taken from US10548894B2, “Combination therapy” (Array BioPharma Inc., priority 2013, dated 2020).
